Results taken from patent EP3325012B1, “CINEOLE-CONTAINING COMPOSITION FOR TREATING NOSE POLYPS” (Maria Clementine Martin Klosterfrau Vertriebsgesellschaft …, priority 2015, dated 2017).
Entries after “also recorded” stand apart in the source; their conditions may differ.

How the values were obtained:
Nasenpolypenzellen = experiment: Proliferation of nasal polyp cells (xCELLigence Real Time Cell Analyzer; figure legend says MTT test); format: cell-based, Mensch; settings: 100 µM 1,8-Cineol, after 144 Stunden; two subjects I and II (Figur 2A)
From the text: Material und Methoden: Die Anmelderin hat Gewebeproben aus Nasenpolypen und unteren Nasenmuscheln von Patienten mit CRSwNP (chronischer Rhinosinusitis mit Nasenpolypen) und aus unteren Nasenmuscheln von Probanden ohne chronische Sinusitis (gesunde Schleimhaut) auf Basis von immunohistochemischen Methoden und Immunoblot-Verfahren untersucht. Die zelluläre Proliferation und Migration wurden unter Einsatz des xCELLigence Real Time Cell Analyzer untersucht.
Proben von Nasenpolypen wurden in PBS-Puffer gewaschen und in sterilem serumfreiem "High Glucose Dulbecco's Modified Eagle Medium" (PAA, Pasching, Österreich) mit einer Skalpellklinge vorsichtig in kleine Stücke zerkleinert, wobei das Medium 1 % L-Glutamin, 1 % Natriumpyruvat, 1 % nichtessentielle Aminosäuren, 2 % Amphotericin B, 2 % Streptomycin und 2 % Penicillin, ergänzt mit 10 % FCS, und 25 mM HEPES Puffer, enthielt (alle von PAA, Pasching, Österreich). […]
Die Zellproliferation wurde mittels eines quantitativen kolorimetrischen 3-(4,5-Dimethylthiazol 2-yl)-2,5-diphenyltetrazoliumbromid-basierten (MTT) Zelltests bestimmt. […]

GSK-3-alpha/beta = experiment: Western blot of phospho-GSK-3 (Ser-9/-21) in nasal polyp samples; format: cell-based, Mensch; settings: 100 µM, 24 h (Figur 4A)
Experimental: Lysate von Geweben wurden durch Erhitzen über einen Zeitraum von 5 Minuten in einfachem SDS-Probenpuffer (Carl Roth GmbH, Karlsruhe, Deutschland) denaturiert. Die Proteinkonzentrationen wurden mittels des Bradford-Tests bestimmt und jeweils 30 µg Gesamtprotein wurden zur SDS-Polyacrylamid-Gel Elektrophorese eingesetzt (Mini-Protean TGX®, Any kD, BioRad, Hercules, CA, USA) und anschließend auf Nitrozellulosemembranen übertragen. Die Übertragung der Proteine wurde mittels Ponceau-Färbung kontrolliert. […]
Um die Beladungsmenge jeder Spur zu bestimmen, wurden die Nitrozellulosemembranen über Nacht bei 4 °C mit einem primären Antikörper der GAPDH (Cell Signaling Technology Inc., Massachusetts, Katalognummer: 14C10) in einer Verdünnung von 1 : 1.000 inkubiert. […] Die Pixeldichten wurden quantifiziert und mittels Fusion FX7® unter Einsatz von Bio-1D Software® dokumentiert. […]

## CC12CCC(CC1)C(C)(C)O2 [1,8-Cineol, 1,3,3-Trimethyl-2-oxabicyclo[2.2.2]octan]
Nasenpolypenzellen
  Proliferation von Nasenpolypenzellen: stark verringerte Proliferation; also recorded: stark abnehmende Proliferation
GSK-3-alpha/beta
  Phosphorylierung von GSK-3-alpha/beta an Serin-9/-21: verringerten Phosphorylierung
